# Test results: ChEMBL document CHEMBL5370558, “Modifications of geldanamycin via CuAAC altering affinity to chaperone protein Hsp90 and cytotoxicity” (Eur J Med Chem, 2023)
# Starred links: 1 amine or outer side, 2 acyl side, 3 side chain; linkers in the order of their positions; H or OH if unused. Positions of bridges follow the written chain, without caps; N, C: chain ends. Non-standard residues stand in square brackets, D forms with d. Residues, ends and D or L forms follow the SMILES beside them. Chains are numbered I, II in the order given. Actinocin(9to1) = Cc1c2oc3c(C)ccc(C(=O)[*:1])c3nc-2c(C(=O)[*:2])c(N)c1=O; NMeV = CN[C@H](C(=O)O)C(C)C; Sar = CNCC(=O)O
# Columns and labels:
# [1] = Selectivity index, ratio of IC50 for cytotoxicity against human HDF cells to IC50 for anticancer activity against human PC-3 cells; type: toxicity, cell-based; details: HDF cells versus PC-3 cells, read-out: Ratio IC50
# [2] = Selectivity index, ratio of IC50 for cytotoxicity against human HDF cells to IC50 for anticancer activity against human SK-BR-3 cells; type: toxicity, cell-based; details: HDF cells versus SK-BR-3 cells, read-out: Ratio IC50
# PC-3 = test: Anticancer activity against human PC-3 cells assessed as cell growth inhibition incubated for 72 hrs by SRB assay; type: functional, cell-based
# [3] = Cytotoxicity against human HDF cells assessed as cell growth inhibition incubated for 72 hrs by SRB assay; type: toxicity, cell-based; details: HDF cells (normal human dermal fibroblasts, NHDF)
# SK-BR-3 = test: Anticancer activity against human SK-BR-3 cells assessed as cell growth inhibition incubated for 72 hrs by SRB assay; type: functional, cell-based
# SK-OV-3 = test: Anticancer activity against human SK-OV-3 cells assessed as cell growth inhibition incubated for 72 hrs by SRB assay; type: functional, cell-based
# [4] = Selectivity index, ratio of IC50 for cytotoxicity against human HDF cells to IC50 for anticancer activity against human SK-OV-3 cells; type: cell-based; details: HDF cells versus SK-OV-3 cells, read-out: Ratio IC50
SMILES,selectivity ratio [1],selectivity ratio [2],"IC50 (PC-3; Homo sapiens, PC-3, 72 h) [nM]",IC50 at 72 h [3] [nM],"IC50 (SK-BR-3; Homo sapiens, SK-BR-3, 72 h) [nM]","IC50 (SK-OV-3; Homo sapiens, SK-OV-3, 72 h) [nM]",selectivity ratio [4],IC50 (PC-3; pc-3) [nM],IC50 (SK-BR-3; sk-br-3) [nM],IC50 (SK-OV-3; sk-ov-3) [nM]
"Cc1c2oc3c(C)ccc(C(=O)N[C@@H]4C(=O)N[C@H](C(C)C)C(=O)N5CCC[C@H]5C(=O)N(C)CC(=O)N(C)[C@@H](C(C)C)C(=O)O[C@@H]4C)c3nc-2c(C(=O)N[C@@H]2C(=O)N[C@H](C(C)C)C(=O)N3CCC[C@H]3C(=O)N(C)CC(=O)N(C)[C@@H](C(C)C)C(=O)O[C@@H]2C)c(N)c1=O [DACTINOMYCIN] (I: T[dV]P[Sar][NMeV] / II: T[dV]P[Sar][NMeV]; ester I:1-I:C, II:1-II:C; linker I:N-II:N via Actinocin(9to1))",2.3,2.4,710,1630,680,620,2.63,,,
CO[C@H]1/C=C\C=C(/C)C(=O)NC2=CC(=O)C(NCc3cn(Cc4ccc(C)cc4)nn3)=C(C[C@@H](C)C[C@H](OC)[C@H](O)[C@@H](C)/C=C(\C)[C@@H]1OC(N)=O)C2=O,1.38,1.18,850,1170,990,820,1.43,,,
CO[C@H]1/C=C\C=C(/C)C(=O)NC2=CC(=O)C(NCc3cn([C@@H]4O[C@H](COC(C)=O)[C@H](OC(C)=O)[C@H](OC(C)=O)[C@H]4OC(C)=O)nn3)=C(C[C@@H](C)C[C@H](OC)[C@H](O)[C@@H](C)/C=C(\C)[C@@H]1OC(N)=O)C2=O,1.07,1.29,910,970,770,780,1.24,,,
CO[C@H]1/C=C\C=C(/C)C(=O)NC2=CC(=O)C(NCCn3cc(-c4ccsc4)nn3)=C(C[C@@H](C)C[C@H](OC)[C@H](O)[C@@H](C)/C=C(\C)[C@@H]1OC(N)=O)C2=O,2.09,2.23,990,2070,930,940,2.2,,,
CO[C@H]1/C=C\C=C(/C)C(=O)NC2=CC(=O)C(NCc3cn([C@@H]4OC[C@@H](OC(C)=O)[C@H](OC(C)=O)[C@H]4OC(C)=O)nn3)=C(C[C@@H](C)C[C@H](OC)[C@H](O)[C@@H](C)/C=C(\C)[C@@H]1OC(N)=O)C2=O,1.3,1.05,3520,4590,4360,3730,1.23,,,
CO[C@H]1/C=C\C=C(/C)C(=O)NC2=CC(=O)C(NCc3cn(Cc4cccc(C#N)c4)nn3)=C(C[C@@H](C)C[C@H](OC)[C@H](O)[C@@H](C)/C=C(\C)[C@@H]1OC(N)=O)C2=O,1.65,1.65,4510,7440,4510,4600,1.62,,,
CO[C@H]1/C=C\C=C(/C)C(=O)NC2=CC(=O)C(NCCn3cc(CC(=O)O)nn3)=C(C[C@@H](C)C[C@H](OC)[C@H](O)[C@@H](C)/C=C(\C)[C@@H]1OC(N)=O)C2=O,1.83,1.37,2120,3880,2840,2680,1.45,,,
CO[C@H]1/C=C\C=C(/C)C(=O)NC2=CC(=O)C(NCc3cn(Cc4ccccc4I)nn3)=C(C[C@@H](C)C[C@H](OC)[C@H](O)[C@@H](C)/C=C(\C)[C@@H]1OC(N)=O)C2=O,2.37,2.55,410,970,380,390,2.49,,,
CO[C@H]1/C=C\C=C(/C)C(=O)NC2=CC(=O)C(NCc3cn([C@@H]4O[C@H](CO)[C@@H](O[C@@H]5O[C@H](CO)[C@H](O)[C@H](O)[C@H]5O)[C@H](O)[C@H]4O)nn3)=C(C[C@@H](C)C[C@H](OC)[C@H](O)[C@@H](C)/C=C(\C)[C@@H]1OC(N)=O)C2=O,1.45,1.44,2830,4110,2850,2840,1.45,,,
COC1=C2C[C@@H](C)C[C@H](OC)[C@H](O)[C@@H](C)/C=C(\C)[C@H](OC(N)=O)[C@@H](OC)/C=C\C=C(/C)C(=O)NC(=CC1=O)C2=O [GELDANAMYCIN],,,,1050,,,,600,580,640
CO[C@H]1/C=C\C=C(/C)C(=O)NC2=CC(=O)C(NCc3cn(Cc4ccc(F)cc4)nn3)=C(C[C@@H](C)C[C@H](OC)[C@H](O)[C@@H](C)/C=C(\C)[C@@H]1OC(N)=O)C2=O,1.07,1.09,1580,1690,1550,1520,1.11,,,
CO[C@H]1/C=C\C=C(/C)C(=O)NC2=CC(=O)C(NCCn3cc(C(=O)O)nn3)=C(C[C@@H](C)C[C@H](OC)[C@H](O)[C@@H](C)/C=C(\C)[C@@H]1OC(N)=O)C2=O,2.06,2.21,870,1790,810,870,2.06,,,
COC(=O)C[C@H]1O[C@@H](n2cc(CNC3=C4C[C@@H](C)C[C@H](OC)[C@H](O)[C@@H](C)/C=C(\C)[C@H](OC(N)=O)[C@@H](OC)/C=C\C=C(/C)C(=O)NC(=CC3=O)C4=O)nn2)[C@H](O)[C@@H](O)[C@@H]1O,1.65,1.55,1330,2190,1410,1470,1.49,,,
CO[C@H]1/C=C\C=C(/C)C(=O)NC2=CC(=O)C(NCc3c[nH]nn3)=C(C[C@@H](C)C[C@H](OC)[C@H](O)[C@@H](C)/C=C(\C)[C@@H]1OC(N)=O)C2=O,2.57,2.42,690,1770,730,690,2.57,,,
CO[C@H]1/C=C\C=C(/C)C(=O)NC2=CC(=O)C(NCc3cn(Cc4ccc([N+](=O)[O-])cc4)nn3)=C(C[C@@H](C)C[C@H](OC)[C@H](O)[C@@H](C)/C=C(\C)[C@@H]1OC(N)=O)C2=O,1.28,1.05,690,780,740,740,1.05,,,
CO[C@H]1/C=C\C=C(/C)C(=O)NC2=CC(=O)C(NCc3cn(Cc4ccc(C#N)cc4)nn3)=C(C[C@@H](C)C[C@H](OC)[C@H](O)[C@@H](C)/C=C(\C)[C@@H]1OC(N)=O)C2=O,2.09,1.91,850,1780,930,940,1.89,,,
CO[C@H]1/C=C\C=C(/C)C(=O)NC2=CC(=O)C(NCc3cn(Cc4ccc(C(F)(F)F)cc4)nn3)=C(C[C@@H](C)C[C@H](OC)[C@H](O)[C@@H](C)/C=C(\C)[C@@H]1OC(N)=O)C2=O,1.55,1.57,800,1240,790,910,1.36,,,
C#CCNC1=C2C[C@@H](C)C[C@H](OC)[C@H](O)[C@@H](C)/C=C(\C)[C@H](OC(N)=O)[C@@H](OC)/C=C\C=C(/C)C(=O)NC(=CC1=O)C2=O,1.8,1.84,4090,7360,4010,4230,1.74,,,
CO[C@H]1/C=C\C=C(/C)C(=O)NC2=CC(=O)C(NCc3cn([C@@H]4O[C@H](CO)[C@H](O)[C@H](O)[C@H]4O)nn3)=C(C[C@@H](C)C[C@H](OC)[C@H](O)[C@@H](C)/C=C(\C)[C@@H]1OC(N)=O)C2=O,1.83,1.74,540,990,570,530,1.87,,,
